Source: patent US20160361418A1, “COMPOSITION FOR PREVENTION OR TREATMENT OF TREATMENT-RESISTANT CANCER” (priority 2014, published 2016)
“Also recorded” adds a separate entry of the source. Values belong to the compound of their own block, whether it stands above or below them.

What was measured:
[1] = test system: Human glioblastoma astrocytoma U87MG cells; assay: Intracellular accumulation of PpIX biosynthesized from ALA (FACS fluorescence); type: cell-based; details: 4 hours; for fluorescence intensity / intracellular accumulation of PpIX: 2 mM ALA with inhibitor 1 nM to 100 μM
Experimental: Human glioblastoma astrocytoma U87MG cells were cultured together with 2 mM ALA and Lapatinib in various concentrations for 4 hours, and thereafter, the fluorescence intensity (MFI value) of PpIX, which was biosynthesized from ALA and was accumulated in the cells during the culture, was measured using FACS (Beckman Coulter). Specific experimental procedures are as follows.
U87MG cells were washed with PBS twice, and were then peeled using Trypsin-EDTA. 10^6 cells were suspended in a low-serum DMEM medium (2% FBS). Subsequently, 2 mM ALA alone was added to the suspension, or 2 mM ALA was combined with Lapatinib or Gefitinib in a concentration from 1 nM to 100 μM, and the combination was then added to the suspension. Thereafter, the obtained mixture was cultured at 37° C. for 4 hours. After completion of the culture, the cultured cells were washed with cold PBS (2% FBS), and were then suspended again in cold PBS (2% FBS). Thereafter, intracellular fluorescence intensity was measured using FACS (Beckman Coulter). 50,000 cells were measured for a single measurement. PpIX accumulated in the cells was excited with UV laser (325 nm), the fluorescence at 575 nm was then detected, and the mean fluorescence intensity (MFI) of the fluorescence of the measured cells was then calculated. Based on the obtained results, intracellular accumulation of PpIX was relatively calculated, and inhibition of the PpIX transport of ABCG2 by Lapatinib or Gefitinib was estimated.

[2] = test system: Human glioblastoma astrocytoma U87MG cells; assay: ALA-PDT with Lapatinib, cell viability by MTT method; type: cell-based; details: LED 635 nm 12 J/cm^2
Experimental: Human glioblastoma astrocytoma U87MG cells (10^6 cells) were suspended in DMEM (2% FBS), and thereafter, 10 mM ALA alone was added to the suspension, or 10 mM ALA was combined with Lapatinib in a concentration from 1 nM to 300 μM, and the combination was then added to the suspension. The obtained mixture was cultured at 37° C. for 4 hours. Thereafter, the cells were irradiated with LED having a peak at 635 nm (12 J/cm^2), and the cell viability was then measured by an MTT method. It is to be noted that the MTT method has the same measurement principle as that of the WST-8 assay, and that this is a colorimetric determination method for measuring an enzymatic activity of reducing MTT to a formazan pigment (violet).

ABCG2 [3] = target: T1, ABCG2 (Homo sapiens, UniProt Q9UNQ0); assay: Inhibition of transport function of ABCG2 (Hoechst 33342 excretion, Flp-In-293/ABCG2 cells, FACS); type: cell-based; set-up: expressed in transfected cells; host or cells: Flp-In-293 cells (Flp-In-293/ABCG2), with Flp-In-293/Mock as control; details: inhibitor 1 nM to 100 μM, 5 μg/mL Hoechst 33342, 90 minutes
T1 sequence (Q9UNQ0 1-655): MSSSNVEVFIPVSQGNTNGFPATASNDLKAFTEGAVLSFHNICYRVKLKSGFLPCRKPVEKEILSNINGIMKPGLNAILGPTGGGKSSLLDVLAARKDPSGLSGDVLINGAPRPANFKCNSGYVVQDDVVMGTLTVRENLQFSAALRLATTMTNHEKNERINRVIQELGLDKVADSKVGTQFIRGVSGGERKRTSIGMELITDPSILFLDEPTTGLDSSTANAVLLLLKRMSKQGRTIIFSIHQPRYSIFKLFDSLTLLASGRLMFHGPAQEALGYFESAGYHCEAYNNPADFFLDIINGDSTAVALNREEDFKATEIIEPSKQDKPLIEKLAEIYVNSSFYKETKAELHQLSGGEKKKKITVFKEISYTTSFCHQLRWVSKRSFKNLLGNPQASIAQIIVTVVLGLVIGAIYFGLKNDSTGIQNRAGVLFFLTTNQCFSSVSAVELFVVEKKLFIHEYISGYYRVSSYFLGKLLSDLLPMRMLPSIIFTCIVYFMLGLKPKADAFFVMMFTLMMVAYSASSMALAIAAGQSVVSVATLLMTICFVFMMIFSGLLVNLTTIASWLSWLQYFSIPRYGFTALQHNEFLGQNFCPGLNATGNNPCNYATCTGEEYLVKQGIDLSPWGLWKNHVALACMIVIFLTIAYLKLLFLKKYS
Experimental: In the present experiment, using Hoechst 33342 and a plurality of tyrosine kinase inhibitors, an experiment was carried out to screen for an inhibitor of ABCG2.
Specifically, using Erlotinib, Gefitinib, Lapatinib, Imatinib, Nilotinib and Dasatinib as tyrosine kinase inhibitors, and also using an L-type calcium channel inhibitor, Verapamil, as a control, screening was carried out for inhibition of the transport function of ABCG2.
Flp-In-293 cells (Flp-In-293/ABCG2 cells), which express human ABCG2, were cultured together with Hoechst 33342 as a substrate of ABCG2 and the aforementioned tyrosine kinase inhibitors for a certain period of time. Thereafter, the level of Hoechst 33342 accumulated in individual cells was measured using FACS (Beckman Coulter). […] Specific experimental procedures are as follows.
Flp-In-293/Mock and Flp-In-293/ABCG2 were each washed with PBS (phosphate buffered saline) twice, and were then peeled using Trypsin-EDTA. 10^6 cells were suspended in a DMEM medium (2% FBS). Subsequently, 5 μg/mL Hoechst 33342 (Invitrogen) alone was added to the suspension, or 5 μg/mL Hoechst 33342 was combined with various types of inhibitors in concentrations of 1 nM to 100 μM, and the combination was then added to the suspension. The obtained mixture was cultured at 37° C. for 90 minutes. After completion of the culture, the cultured cells were washed with cold PBS (2% FBS), and were then suspended again in cold PBS (2% FBS). Thereafter, intracellular fluorescence intensity was measured using FACS (Beckman Coulter). 50,000 cells were measured for a single measurement. Hoechst 33342 accumulated in the cells was excited with UV laser, the fluorescence at […] was then detected, and the mean fluorescence intensity (MFI) of the fluorescence of the measured cells was then calculated. Based on the obtained results, the inhibitory percentage against ABCG2 was calculated.
The MFI values of Flp-In-293/Mock cells and Flp-In-293/ABCG2 cells upon addition of Hoechst 33342 alone were set at 100% and 0%, respectively. […]

ABCG2 [4] = target: T1, ABCG2; details: from earlier publication (Pharm Res. 26(2), 449-458, 2009); cited from earlier work
157NS cells = assay: Photosensitivity of cancer stem cells to ALA-PDT (WST-8 cell viability); type: cell-based, human; details: sphere type relative to non-sphere type
Experimental: (§1) Specifically, three types of brain tumor glioma stem cell lines (MD13, MD30, and 157NS cells), which had been isolated and established from brain tumor patients, were used, and an experiment was carried out to verify the photosensitivity of these cells to ALA-PDT. In preparation for the experiment, these cells were first cultured in a D-MEM/F12 culture solution containing 10% fetal calf serum (FCS) and in a D-MEM/F12 culture solution containing no FCS (containing L-glutamine, heparin, B27, EGF, and bFGF), and the shapes of the cells were then examined.
(§2) Brain tumor stem cells (MD13, MD30, and 157NS cells), which had grown to a sphere type and a non-sphere type, were treated with trypsin, and thereafter, the resulting cells were each incubated at a density of 1.0×10^6 cells/ml, together with 0.3 mM ALA, for 4 hours. Thereafter, a 405-nm laser light was applied to the cells. After the cells had been cultured for 7 days, the cell viability was measured according to a viable cell count measurement method (WST-8 assay) using water soluble tetrazolium salts as a coloring reagent.
(§3) The sphere type cells (FIG. 2B) cultured in the D-MEM/F12 culture solution containing no FCS (containing L-glutamine, heparin, B27, EGF, and bFGF) had higher sensitivity to ALA-PDT, than the non-sphere type cells (FIG. 2A) cultured in the D-MEM/F12 culture solution containing 10% FCS.

MD13 cells = assay: as above; type: cell-based, human; details: sphere type relative to non-sphere type
Experimental: as §1, §2, §3

MD30 cells = assay: as above; type: cell-based, human; details: sphere type relative to non-sphere type
Experimental: as §1, §2, §3

[5] = test system: Brain tumor stem cells (MD13, MD30, and 157NS cells); assay: Photosensitivity of cancer stem cells to ALA-PDT, summary over the three lines; type: cell-based, human; details: 0.3 mM ALA 4 hours; 405-nm laser light
Experimental: as §1, §2, §3

[6] = test system: brain tumor cell line A172; assay: Photosensitivity of brain tumor cells to ALA-PDT (WST-8 cell viability); type: cell-based; details: 0.3 mM ALA 4 hours, 405-nm laser light, WST-8 after 7 days
Experimental: (§4) The brain tumor cell line A172 (purchased from American Type Culture Collection) was cultured in a D-MEM/F12 culture solution containing no FCS (containing L-glutamine, heparin, B27, EGF, and bFGF). As a result, the cells formed a sphere similar to stem cells. […] The cells, which had grown to a sphere type and a non-sphere type, were treated with trypsin. Subsequently, the cells were each incubated at a density of 1.0×10^6 cells/ml, together with 0.3 mM ALA, for 4 hours, and thereafter, a 405-nm laser light was applied to the cells. After the cells had been further cultured for 7 days, the cell viability was measured by a WST-8 assay in the same manner as that of Example 2.

[7] = test system: brain tumor cell line A172; assay: Photosensitivity of brain tumor cells to ALA-PDT (colony formation assay); type: cell-based; details: 0.3 mM ALA 4 hours, 405-nm laser light, colonies after 14 days
Experimental: as §4
Moreover, 500 cells were collected from A172 cells, on which ALA-PDT had been performed, and the cells were then seeded on a D-MEM agar medium containing 10% FCS and an antibiotic, followed by performing a culture for 14 days. Thereafter, the cultured cells were treated with Trypan blue containing 10% formalin, so that the cell colonies were immobilized and stained. The number of colonies each consisting of 50 or more cells was counted using a stereoscopic microscope.
In the aforementioned WST-8 assay, the cell viability can be measured based on a reduction reaction using mitochondrial NAD(P)H. On the other hand, in the colony formation assay, the proliferation ability of cells can be measured. […]

HeLa cells = assay: Multiple-dose ALA-PDT on HeLa cells and therapy-resistant HeLa cells (WST8 cell viability); type: cell-based, human
Experimental: HeLa cells (human-derived uterine cervix cancer cell line; 1×10^5 cells) were seeded on a 60-mm dish, and then cultured for 24 hours. Thereafter, an anticancer agent was administered to the culture solution. […] The surviving cells (5×10^3 cells) were seeded on a 96-well plate. In the present example, these cells surviving 72 hours after administration of the anticancer agent were used as therapy-resistant cancer.
Twenty-four hours after the seeding of the surviving cells on the 96-well plate, 5-aminolevulinic acid hydrochloride (ALA) was administered to the cells, and the resulting cells were then cultured for 4 hours. Thereafter, 631-nm LED light was applied to the cells to a total dose of 60 J/cm^2, one to three times. In the case of multiple-dose light irradiation, the interval between light irradiations was set at 2 hours. Twenty-four hours after the light irradiation, the resulting cells were washed with PBS twice, and the cell viability was then measured by the WST8 assay.
The longitudinal axis in each figure indicates the percentage of cell viability in the experiment groups, while the cell viability is set at 100% when the experiment was carried out under the same conditions as those described above with the exception that ALA was not administered.

[8] = metabolized in a living body; cited from earlier work

- inhibition of ABCG2 (inhibition of the excretion of Hoechst 33342), comparison among inhibitors (ABCG2 [3]): inhibits ABCG2 most strongly
SMILES: CS(=O)(=O)CCNCc1ccc(-c2ccc3ncnc(Nc4ccc(OCc5cccc(F)c5)c(Cl)c4)c3c2)o1 [Lapatinib, n-[3-chloro-4-[(3-fluorophenyl)methoxy]phenyl]-6-[5-[(2-methylsulfonylethylamino)methyl]-2-furyl]quinazolin-4-amine]
- fluorescence intensity / intracellular accumulation of PpIX [1]: increased
- concentration region in which ABCG2 was significantly inhibited ([1]; 2 mM ALA): ≥ 10 nM
- sensitivity of the cells to LED irradiation ([2]; 10 mM ALA with Lapatinib 1 nM to 300 μM): increased in a concentration-dependent manner

SMILES: COc1cc2ncnc(Nc3ccc(F)c(Cl)c3)c2cc1OCCCN1CCOCC1 [Gefitinib, N-(3-chloro-4-fluoro-phenyl)-7-methoxy-6-(3-morpholin-4-ylpropoxy)quinazolin-4-amine]
- fluorescence intensity / intracellular accumulation of PpIX [1]: intracellular accumulation of PpIX was observed, but the amount of PpIX accumulated was not as large as that in the case of inhibition by Lapatinib
- inhibition of ABCG2 (ABCG2 [4]): effectively inhibits ABCG2
- inhibition of ABCG2 (inhibition of the excretion of Hoechst 33342), comparison among inhibitors (ABCG2 [3]): ABCG2-inhibitory ability almost equivalent to each other; also recorded: weaker than that of Lapatinib

SMILES: C#Cc1cccc(Nc2ncnc3cc(OCCOC)c(OCCOC)cc23)c1 [Erlotinib, N-(3-ethynylphenyl)-6,7-bis(2-methoxyethoxy)-4-quinazolinamine]
- inhibition of ABCG2 (inhibition of the excretion of Hoechst 33342), comparison among inhibitors (ABCG2 [3]): ABCG2-inhibitory ability almost equivalent to each other

SMILES: NCC(=O)CCC(=O)O [ALA, 5-aminolevulinic acid]
- ALA-PDT sensitivity (157NS cells): 1.8
- ALA-PDT sensitivity (MD13 cells): 2.4
- ALA-PDT sensitivity (MD30 cells): 1.9
- sensitivity to ALA-PDT of sphere type cells relative to non-sphere type cells [5]: 2 times
- photosensitivity to ALA-PDT of sphere type versus non-sphere type cells (cell viability) [6]: higher photosensitivity than the non-sphere type cells
- photosensitivity to ALA-PDT of sphere type versus non-sphere type cells (colony-forming ability) [7]: significantly higher photosensitivity than the non-sphere type cells
- cells died ([2]; 10 mM ALA alone 4 hours): approximately 50%
- cell viability in relation to the number of light irradiations (HeLa cells; 125 to 250 μM ALA, 631-nm LED total 60 J/cm^2 in one to three irradiations): decreased depending on the number of light irradiations
- ALA concentration at which the cell viability was decreased (HeLa cells; HeLa with no anticancer agent or surviving Adriamycin, Cisplatin, Etoposide or 5-Fluorouracil, 631-nm LED total 60 J/cm^2, 24 hours after): ≥ 125 µM
- time until ALA is excreted from the body [8]: ≤ 48 h
